Reference: US10421749B2, “Pyrone derivatives for use as antiviral agents” (priority 2015, dated 2019)
Entries after “also recorded” stand apart in the source; their conditions may differ.

How the values were obtained:
HBV = HBV replication in HepG2.2.15 cells (HBeAg, released viral particles, intracellular HBV DNA); format: cell-based; conditions: three days treatment, 1 μM to 1 nM
Method: Antiviral effect of Compound 1 on HBV replication. A) After a three days treatment of HepG2.2.15 cells with Compound 1 in a concentration range from 1 μM to 1 nM, the cell viability was unchanged compared to untreated control cells.
(§1) The human hepatoma cell line HepG2.2.15, stably expressing HBV particles, was seeded in a 48 well format at a density of 5×10^4 the day before starting the treatment. Next day the cells were treated with 1 μM, 100 nM, 10 nM and 1 nM of Compound 1 with 3 independent biological replicates each. The cells were cultured in differentiation medium containing 1.8% DMSO, to slow down cell growth and enhance viral replication. Three days after treatment, cell viability (FIG. 4A) was determined by cell titer blue assay, cell supernatants were analyzed for HBeAg and newly released viral particles (FIGS. 4B and C) and finally cells were harvested to analyze for intracellular HBV DNA (FIG. 4D).

HepG2.2.15 cells = test: Cell viability of HepG2.2.15 cells by cell titer blue assay; format: cell-based, human; conditions: three days treatment, 1 μM to 1 nM, compared to untreated control cells; FIG. 4A
Method: as §1

[1] = test system: HIV-1 expression in HNSCLatGFP1.1 cells; test: Induced expression of latent HIV-1-gfp reporter virus in HNSCLatGFP1.1 cells (GFP, FACS); format: cell-based, human; conditions: induction with TNF; 0.5, 5, 50 nM compound; FIG. 3A
Method: A) Induction of expression of HIV-1 in HNSCLatGFP1.1 cells using TNF: 1: untreated (negative control); 2: TNF (positive control); 3: 0.5 nM Compound 1; 4: 5 nM Compound 1; 5: 50 nM Compound 1; 6: 0.5 nM Compound 1+TNF; 7: 5 nM Compound 1+TNF; 8: 50 nM Compound 1+TNF. B) Induction of expression of HIV-1 in HNSCLatGFP1.1 cells using TNF+SAHA: 1: mock; 2: TNF+SAHA; 3: 50 nM Compound 1; 4: TNF+SAHA+50 nM Compound 1. C) Induction of expression of HIV-1 in HNSCLatGFP1.1 cells using SAHA: 1: untreated (negative control); 2: SAHA (positive control); 3: 0.5 nM Compound 1; 4: 5 nM Compound 1; 5: 50 nM Compound 1; 6: 0.5 nM Compound 1+SAHA; 7: 5 nM Compound 1+SAHA; 8: 50 nM Compound 1+SAHA.
To further characterize the inhibitory effects of Compound 1, a further cell line (HNSCLatGFP1.1) was established into the genome of which the genome of a HIV-1-gfp reporter virus has been stably integrated.
Reference cultures were either untreated (minimum signal; lane 1 of FIG. 3A) or exposed to TNF (maximum signal; lane 2 of FIG. 3A). HNSCLatGFP1.1 cells were exposed to different concentrations of Compound 1 either alone (lanes 3 to 5 of FIG. 3A) or together with TNF (lanes 6 to 8 of FIG. 3A).

HIV-1 [2] = test: microbe, parasite or virus in culture; conditions: Human immunodeficiency virus 1, 48 h, read-out: EC50 with respect to HIV replication
Method: (§2) LC5-RIC cells were seeded into 96-well plates (μCLEAR-Plate Black; Greiner Bio-One, Kremsmuenster, Germany), using only the 60 inner wells to avoid adverse effects caused by variations in the culture conditions in the outer wells. Cells were seeded at a density of 10^4 per well at 24 h prior to infection. Compounds were tested either at single concentrations or in serial dilutions, with each concentration assayed in triplicate. Compound solution (100 μl) followed by 20 μl of HIV inoculum (10^8 RNA copies/ml inoculum for KE37.1-derived HIV-1IIIB or 28.8 ng of p24 for HIV-1LAI derived from HEK 293T cells) was added to each well. To assay maximum infection (i.e., 100%), HIV inoculum was added to LC5-RIC cells incubated with compound-free medium. Controls for background expression consisted of LC5-RIC cells cultured in conditioned medium from KE37.1 (i.e., uninfected) cells. Plates were incubated for 48 h after virus addition, after which cultures were assayed for cellular reporter expression and for titers of infectious virus in supernatant fluids. Reporter expression was determined by measuring the total fluorescent signal intensity of each culture with a fluorescence microplate reader (Fluoroskan Ascent; ThermoFisher, Schwerte, Germany) at an excitation filter wavelength of 544 nm and an emission filter wavelength of 590 nm or with a Tecan infinite M200 (Tecan, Crailsheim, Germany) at the monochromator wavelengths 552 nm for excitation and 596 for emission. To quantify infectious virus titers, supernatant fluids (30 μl of HIV-1IIIB or 20 μl for HIV-1LAI) from cultures in the first plate were transferred to a second plate with uninfected LC5-RIC cells in exact replicate, and total fluorescent signal intensities of cultures in the second plate were measured 72 h after transfer.
(§3) Curve fits and EC50 calculations were done with Prism, version 4 (GraphPad Software, La Jolla, Calif.), using the equation for sigmoidal dose response with variable slope with the following set constraint parameters: fixed top of 100 and fixed bottom of 0. As internal acceptance criteria, R^2 values had to be ≥0.9.
(§4) To evaluate the inhibitory effects of the pyrone derivatives described herein, the EASY-HIT assay was used as disclosed in Kremp et al., supra. Briefly, a pyrone compound (or another test compound) was added to LC5-RIC cultures (or other uninfected cells, such as PBMCs) in microtiter plates, HIV preparations were added within 30 min of beginning treatment, and test cultures were incubated for 48 h after virus addition. Reference cultures were either exposed to the virus without test compound (maximum signal) or not exposed to the virus (minimum signal). Effects of test compounds on HIV infection of LC5-RIC cultures were determined in two steps. The first step quantified reporter expression by assaying fluorescent signal intensities of cells in test cultures. The second step quantified the infectious virus produced in test cultures by transferring aliquots of supernatants of test cultures to uninfected LC5-RIC cells (or other uninfected cells, such as PBMCs), followed by measurement of fluorescent signal intensities at 72 h after transfer. Cells evaluated for reporter expression were subjected to an MTT assay to detect deleterious effects of test compounds on cell viability under test conditions.
(§5) Briefly, the test compound) was added to LC5-RIC cultures in microtiter plates. HIV-1 virus preparations were added within 30 min of beginning treatment with the text compound and test cultures were incubated for 48 h after virus addition. Reference cultures were either exposed to the virus without test compound (maximum signal) or not exposed to the virus (minimum signal).

HIV = test: Time-of-addition (TOA) assay in LC5-RIC cells; format: cell-based, HIV-1; conditions: FIG. 2
Method: TOA assays were performed in 96-well plates using a standard assay setup with some modifications. HIV-1IIIB virus preparations were added to LC5-RIC cultures at time point 0. Anti-HIV compounds were added to the cultures at different time points after addition of virus preparations. Inhibitor concentrations were ≥2× EC50 in each well. At least 15 different time points were evaluated for each compound in at least three wells per time point. Cultures were incubated with virus for 48 h and subsequently analyzed for cellular reporter gene expression and/or infectious virus titers in culture supernatants.
To further characterize the inhibitory effects of Compound 1, HIV preparations were added to LC5-RIC cells at the time point 0. Compound 1 was added to the cultures at different time points after virus addition (i.e., p.i.). Plates were incubated for a total period of 48 h after virus addition, and cultures were assayed for HIV reporter expression (step 1) or for amounts of infectious virus in culture supernatants (step 2). Fluorescent signal intensities of treated cultures were related to those of cultures infected without inhibitors (set at 100% infection).

LC5-RIC cells = test: MTT cell viability assay of LC5-RIC test cultures; format: cell-based; conditions: concentration range tested 0 to 120 μM; FIG. 1C
Text: Effects of compounds on cell viability wasy measured by MTT assay, Cell Titre Blue Assay and Cell Tox Green Assay. The MTT assay and the Cell Titre Blue Assay evaluate metabolic activity of cells, The Cell Tox Green assay measures cell death (i.e. loss of cell membrane integrity). The MTT assay measures the reduction of the yellow MTT to purple formazan by mitochondrial enzymes (Mosmann, T., J. Immunol. Methods 65 (1983), 55-63) Immediately following measurement of reporter expression, cultures were incubated with 100 μl of MTT solution (0.5 mg of MTT; Sigma, Taufkirchen, Germany) in 100 μl of culture medium for 2 h under standard culture conditions. MTT solution was carefully removed, and cells were lysed by addition of 100 μl of lysis solution (10% [wt/vol] SDS and 0.6% [vol/vol] acetic acid in dimethyl sulfoxide [DMSO]). The released MTT formazan crystals were dissolved by gentle agitation, and MTT formazan concentrations were determined by an ELISA plate reader (SmartSpec Plus; Bio-Rad, Muenchen, Germany) or Tecan Infinite M200 at a test wavelength of 570 nm and a reference wavelength of 630 nm. Values for treated HIV-infected cultures were related to those of untreated, HIV-infected cultures in the same plate. […]

HIV-1 [3] = conditions: LC5-RIC cells; for inhibition of HIV-1 replication: 48 h, steps 1 and 2, FIG. 5; for inhibition of the late phase of HIV-1 replication: step 2 (supernatant transfer, 72 h), FIG. 6, FIG. 7
Method: as §2, §3, §4, §5

Compound: COc1oc([C@H]2C/C(=C/C(C)=C/c3ccc([N+](=O)[O-])cc3)CO2)c(C)c(=O)c1C [Compound 1]
- IC50 (HBV; Hepatitis B virus, 72 h, n=3, read-out: IC50 of viral replication markers (HBeAg, released viral particles, intracellular HBV DNA)): 2 to 20 nM
- viral replication markers (HBeAg, newly released viral particles, intracellular HBV DNA) (HBV; FIG. 4B-D): strongly reduced in a dose dependent fashion
- cell viability of HepG2.2.15 cells (HepG2.2.15 cells): unchanged; also recorded: without affecting cell viability
- inhibition of virus production in HNSCLatGFP1.1 cells [1]: able to inhibit virus production in HNSCLatGFP1.1 cells in a dose dependent manner
- EC50 (HIV-1 [2]): 0.6 nM
- time between infection and addition of compound at which HIV replication was still blocked (HIV; LC5-RIC cells, 48 h total incubation): 30 h
- stage of HIV replication inhibited (time-of-addition) (HIV; compound added at different time points after virus addition, 48 h total): inhibited the HIV replication at a very early stage
- toxic effect (MTT cell viability) (LC5-RIC cells): did not exhibit any toxic effect

Compound: COc1oc([C@H]2C/C(=C/C(C)=C/c3ccc(Cl)cc3)CO2)c(C)c(=O)c1C [Compound 4]
- inhibition of HIV-1 replication (HIV-1 [3]): inhibit HIV-1 replication

Compound: COc1oc([C@H]2C/C(=C/C(C)=C/c3cccc(Cl)c3)CO2)c(C)c(=O)c1C [Compound 19]
- inhibition of HIV-1 replication (HIV-1 [3]): inhibit HIV-1 replication

Compound: COc1oc([C@H]2C/C(=C/C(C)=C/c3ccc(F)cc3F)CO2)c(C)c(=O)c1C [Compound 21]
- inhibition of the late phase of HIV-1 replication (HIV-1 [3]): highest activities

Compound: COc1oc([C@H]2C/C(=C/C(C)=C/c3ccc(C(F)(F)F)cc3)CO2)c(C)c(=O)c1C [Compound 22]
- inhibition of the late phase of HIV-1 replication (HIV-1 [3]): highest activities

Compound: COc1ccc(/C=C(C)/C=C2\CO[C@@H](c3oc(OC)c(C)c(=O)c3C)C2)cc1OC [Compound 23]
- inhibition of the late phase of HIV-1 replication (HIV-1 [3]): lowest activity
